IC50 data for one compound are collected here from patent US20230346986A1, “METHODS AND AGENTS FOR THE DETECTION AND TREATMENT OF CANCER” (CASE WESTERN RESERVE UNIVERSITY, priority 2019, published 2023).

The target of the experiment is T1, PSMA (Homo sapiens, UniProt Q04609).
T1 construct: endogenous in cells; host or cells: LNcap cells
In words: Competition binding assay with 3H-ZJ24 on LNcap cells. The following applies: 3H-ZJ24 12 nmol/L, 1 h at 37° C. The method, then:
[…] used to test the binding affinity of NPs. Specifically, […] cultured in RPMI1640 medium, harvested, washed with 0.5 mM cold Tris buffer, and divided into 1.5 mL Eppendorf tubes at 5×10^5 cells per tube. […] All the tubes were then centrifuged and cells were washed three times with cold PBS. […] The concentration of ligands required to inhibit 50% of binding (IC50) was determined using GraphPad Prism 3.0.

T1 sequence (Q04609 whole entry): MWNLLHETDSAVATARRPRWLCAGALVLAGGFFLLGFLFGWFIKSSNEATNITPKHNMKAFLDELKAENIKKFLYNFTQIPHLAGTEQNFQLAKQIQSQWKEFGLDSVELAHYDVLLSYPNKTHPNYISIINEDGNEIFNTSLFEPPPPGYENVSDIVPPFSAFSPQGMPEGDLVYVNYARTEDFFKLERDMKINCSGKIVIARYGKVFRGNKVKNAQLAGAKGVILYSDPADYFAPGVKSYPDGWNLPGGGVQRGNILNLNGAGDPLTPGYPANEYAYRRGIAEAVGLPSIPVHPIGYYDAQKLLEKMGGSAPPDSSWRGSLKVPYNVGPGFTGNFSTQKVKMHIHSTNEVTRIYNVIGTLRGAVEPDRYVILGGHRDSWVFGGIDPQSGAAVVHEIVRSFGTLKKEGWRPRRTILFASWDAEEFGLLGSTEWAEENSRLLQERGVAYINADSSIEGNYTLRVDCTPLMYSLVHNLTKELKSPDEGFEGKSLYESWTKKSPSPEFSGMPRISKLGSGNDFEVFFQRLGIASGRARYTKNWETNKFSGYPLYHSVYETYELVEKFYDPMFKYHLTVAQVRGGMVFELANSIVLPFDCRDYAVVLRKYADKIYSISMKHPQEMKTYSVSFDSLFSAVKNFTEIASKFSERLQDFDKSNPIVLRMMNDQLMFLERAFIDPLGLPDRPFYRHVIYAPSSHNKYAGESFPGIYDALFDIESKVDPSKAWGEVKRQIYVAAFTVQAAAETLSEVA

On to `CSC[C@H](NC(=O)N[C@@H](CCC(=O)O)C(=O)O)C(=O)O` [ZJ24], for which the IC50 (commonly the concentration at which inhibition is half-maximal) stood at 9.79 nM.
